Patent US4871766A, “Oil-in-water pesticidal emulsion” (priority 1986, dated 1989)

Tests used:
[1] = Solubility of active ingredient in hydrocarbon at 0° C.; type: physicochemical
[2] = Behaviour of active ingredient on storage at 0° C.; type: physicochemical; conditions: stored at 0° C. for a long time

In the case of CCC(C)c1ccccc1OC(=O)NC (stereo not drawn) [active ingredient (a), 2-Sec-butylphenyl N--methylcarbamate], the “solubility in the hydrocarbon (5)” value ([1]; hydrocarbon (5)) is reported as at least 50 wt. %.

With CC1(C)C(C=C(Cl)Cl)C1C(=O)OC(C#N)c1cccc(Oc2ccccc2)c1 (stereo not drawn) [active ingredient (b), α-Cyano-3-phenoxybenzyl 3-(2,2-dichlorovinyl)-2,2-dimethylcyclopropanecarboxylate] the “crystallization of the active ingredient on storage” value [2] was “crystallizes in part”.

In the case of CC1(C)C(C=C(Cl)Cl)C1C(=O)OCc1cccc(Oc2ccccc2)c1 (stereo not drawn) [active ingredient (d), 3-Phenoxybenzyl 3-(2,2-dichlorovinyl)-2,2-dimethylcyclopropanecarboxylate], the “solubility in the hydrocarbon (4)” value ([1]; hydrocarbon (4)) is reported as at least 50 wt. %.

In the case of CC1(C)C(C(=O)OC(C#N)c2cccc(Oc3ccccc3)c2)C1(C)C (stereo not drawn) [active ingredient (e), α-Cyano-3-phenoxybenzyl 2,2,3,3-tetramethylcyclopropanecarboxylate], the “solubility in the hydrocarbon (3)” value [1] is reported as at least 50 wt. %.

For CC(C)C(C(=O)OC(C#N)c1cccc(Oc2ccccc2)c1)c1ccc(Cl)cc1 (stereo not drawn) [active ingredient (f), α-Cyano-3-phenoxybenzyl 2-(4-chlorophenyl)-3-methylbutyrate], the “solubility in the hydrocarbon (3)” value [1] was at least 50 wt. %.

For CC(COc1ccc(Oc2ccccc2)cc1)Oc1ccccn1 (stereo not drawn) [active ingredient (h), 2-{1-Methyl-2-(4-phenoxyphenoxy)ethoxy}pyridine], the “solubility in the hydrocarbon (6)” value ([1]; hydrocarbon (6)) was 10 wt. %.
